Our source for the EC50 and IC50 values is patent US10030016B2 (Sunesis Pharmaceuticals, Inc., priority 2009, dated 2018).

The test system of assay [1] is phospho-akt (Thr308) in PC-3 cells. Description: Inhibition of phospho-akt (Thr308) in PC-3 cells, MSD phospho-akt 308 ELISA kit. Type of assay: cell-based. Conditions: Homo sapiens, 2 hours, no serum, read-out: EC50. The procedure, abridged: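 Electrochemiluminescent MSD ELISA of Thr308-phosphorylated Akt after a 2 h serum-free compound exposure of PC-3 cells (15,000/well, plated overnight). Controls: DMSO (high), 5 μM wortmannin (low). Lysate binding overnight at 4 °C; detection antibody 1 h at room temperature.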
On the technique in general: In an ELISA, binding on a coated surface is turned into a signal by an enzyme label.

Another assay has as its target PDK1 (Homo sapiens (Human), UniProt O15530). Description: PDK1 kinase assay (coupled PDK1/AKT/FAM-crosstide assay, IMAP fluorescence polarization). It counts as biochemical. The procedure, abridged:
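GST-tagged human PDK1 (aa 51-359, 0.75 nM) from insect cells activated unphosphorylated GST-AKT2 (aa 140-467–PIFtide fusion, 10 nM), which phosphorylated 100 nM FAM-crosstide; 40 μM ATP, pH 7.2 Tris/MgCl2, 30 min at 25° C. IMAP fluorescence polarization read-out; ΔmP versus compound concentration fitted with a 4-parameter curve.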
(In general: Polarisation of emitted light reports the rotation of a fluorescent probe.)

Setting [2] is: inhibition of P308 Akt in PC-3 cells using MSD.
The mark [3] stands for this setting: inhibition of P308 Akt in PC-3 cells, MSD.
The mark [4] stands for this setting: inhibition of phospo-PDK1 in vitro.

Counter-ions that a name gives are not always drawn. Like-named read-outs stand apart in the source and are kept apart here.

PDK1, sequence (O15530 51-359): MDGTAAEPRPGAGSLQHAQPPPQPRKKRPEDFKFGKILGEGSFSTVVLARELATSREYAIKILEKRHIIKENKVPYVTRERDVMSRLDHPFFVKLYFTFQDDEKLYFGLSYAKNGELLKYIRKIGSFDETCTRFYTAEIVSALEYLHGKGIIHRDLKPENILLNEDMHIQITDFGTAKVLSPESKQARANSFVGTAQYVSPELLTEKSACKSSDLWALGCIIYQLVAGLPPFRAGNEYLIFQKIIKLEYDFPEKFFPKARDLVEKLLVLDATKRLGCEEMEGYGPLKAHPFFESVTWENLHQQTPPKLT

For `C[C@H](NC(=O)c1cc(C2=CCOC2)cnc1NCc1ccc(-c2cn(C)c3ncnc(N)c23)cc1)c1ccc(F)cc1` [Example 248, (S)-2-(4-(4-amino-7-methyl-7H-pyrrolo[2,3-d]pyrimidin-5-yl)benzylamino)-5-(2,5-dihydrofuran-3-yl)-N-(1-(4-fluorophenyl)ethyl) nicotinamide], the EC50 in assay [1] (setting [2]) was less than 1000 nM. Further, the IC50 against PDK1 (inhibition of PDK1 in vitro) was less than 100 nM.

As to `Nc1ncnc2ccc(-c3ccc(CNc4ncc(OCc5ccccc5)cc4C(=O)NCc4ccc(F)c(F)c4)s3)cc12` [Ex. 8.1.1, 2-({[5-(4-aminoquinazolin-6-yl)thiophen-2-yl]methyl}amino)-5-(benzyloxy)-N-(3,4-difluorobenzyl)pyridine-3-carboxamide], in assay [1] (setting [3]), the EC50 was in the range of 1000 to 10000 nM. At PDK1 (setting [4]), this molecule registered an IC50 of less than 100 nM.

For the molecule `COc1ccnc(NCc2ccc(-c3ccc4ncnc(N)c4c3)s2)c1C(=O)N[C@@H](C)c1ccc(F)cc1` [Ex. 7.6, (S)-2-(((5-(4-aminoquinazolin-6-yl)thiophen-2-yl)methyl)amino)-N-(1-(4-fluoro-phenyl)ethyl)-4-methoxynicotinamide], the EC50 in assay [1] (setting [3]) was less than 1000 nM. At PDK1 (setting [4]), this molecule registered an IC50 of less than 100 nM.

For `Nc1ncnc2c1c(-c1ccc(CNc3ncc(C(F)(F)F)cc3C(=O)NCc3ccc(F)c(F)c3)cc1)cn2CCO` [Example 333, 2-(4-(4-amino-7-(2-hydroxyethyl)-7H-pyrrolo[2,3-d]pyrimidin-5-yl)-benzylamino)-N-(3,4-difluorobenzyl)-5-(trifluoromethyl)nicotinamide], the EC50 in assay [1] (setting [2]) was less than 1000 nM. The same molecule displayed an IC50 against PDK1 (inhibition of PDK1 in vitro) of less than 100 nM.

As for `Nc1ncnc2ccc(-c3ncc(CNc4ncccc4C(=O)NCc4ccc(F)c(F)c4)s3)cc12` [Ex. 6.6, 2-({[2-(4-aminoquinazolin-6-yl)-1,3-thiazol-5-yl]methyl}amino)-N-(3,4-difluoro-benzyl) pyridine-3-carboxamide], the EC50 in assay [1] (setting [3]) was greater than 10000 nM. Also, at PDK1 (setting [4]), the IC50 was less than 100 nM.

On to `C[C@H](NC(=O)c1cccnc1NCc1ccc(-c2ccc3ncnc(N)c3c2)s1)c1cncc(F)c1` [Example 3.59, (S)-2-(((5-(4-aminoquinazolin-6-yl)thiophen-2-yl)methyl)amino)-N-(1-(5-(fluoropyridin-3-yl)ethyl)nicotinamide (TFA salt)], for which the EC50 in assay [1] (setting [3]) lay within 1000 to 10000 nM. For the same molecule, the half-inhibitory concentration (IC50) against PDK1 (setting [4]) is less than 100 nM.

As to `Nc1cnc(-c2ccc(CNc3ncc(C(F)(F)F)cc3C(=O)NCc3ccc(F)c(F)c3)cn2)cn1` [Example 326], the EC50 in assay [1] (setting [2]) was greater than 10000 nM. On PDK1 (inhibition of PDK1 in vitro), the IC50 fell in the range of 100 to 1000 nM.

`C[C@H](NC(=O)c1nc(C#N)cnc1NCc1ccc(-c2cnc3[nH]nc(NC(=O)c4ccccc4)c3c2)cc1)c1ccc(F)c(F)c1` [Example 37, (S)-3-(4-(3-benzamido-1H-pyrazolo[3,4-b]pyridin-5-yl)benzylamino)-6-cyano-N-(1-(3,4-difluorophenyl)ethyl)pyrazine-2-carboxamide]: the EC50 in assay [1] (setting [3]) was less than 1000 nM. The IC50 against PDK1 (setting [4]) was less than 100 nM.

For `C[C@H](NC(=O)c1cccnc1NC/C=C/c1ccc2c(c1)NC(=O)/C2=C\c1cnc[nH]1)c1ccc(F)c(F)c1` [Example 15.5, 2-((E)-3-((Z)-3-((1H-imidazol-5-yl)methylene)-2-oxoindolin-6-yl)allylamino)-N-((S)-1-(3,4-difluorophenyl)ethyl)nicotinamide], in assay [1] (setting [3]), the EC50 is less than 1000 nM. The molecule further came in with an IC50 on PDK1 (setting [4]) of less than 100 nM.

`COc1ccc([C@H](COc2ccc3[nH]c(=O)[nH]c3c2)Nc2ncccc2C(=O)N[C@@H](C)c2ccc(F)c(F)c2)cc1` [Example 16.8, N-((S)-1-(3,4-difluorophenyl)ethyl)-2-(((R)-1-(4-methoxyphenyl)-2-(2-oxo-2,3-dihydro-1H-benzo[d]imidazol-5-yloxy)ethyl)amino)nicotinamide]: the half-maximal effective concentration (EC50) in assay [1] (PC-3, 2 h, inhibition of P308 Akt in PC-3 cells, MSD) was greater than 10000 nM. This molecule displayed an IC50 against PDK1 (setting [4]) of 1000 to 5000 nM.

Regarding `Nc1ncnc2ccc(-c3ccc(CNc4ncccc4C(=O)NC4CCCCCC4)s3)cc12` [Example 3.30, 2-({[5-(4-aminoquinazolin-6-yl)thiophen-2-yl]methyl}amino)-N-cycloheptylpyridine-3-carboxamide (TFA salt)], the EC50 in assay [1] (setting [3]) is greater than 10000 nM. The IC50 against PDK1 (setting [4]) was greater than 5000 nM.

As usually defined, the EC50 is the concentration that produces a half-maximal response. What is called IC50 is the concentration that gives 50% inhibition. A lower IC50 goes with higher potency.
